Measured values: ChEMBL document CHEMBL1201862, “PubChem BioAssay data set” (2004)
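Tested at 5 concentrations; 48 h exposure; 96-well plates; endpoints linearly interpolated, else capped at highest concentration. The concentration for 50% growth inhibition is given as GI50.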 The source made the active and inactive calls. Cut-off read from the data, not from the text of the source: active = GI50 up to about 1.1 µM and inactive = higher.

Key:
Experiment in all cases: DTP human tumour cell line panel, 48 h
HL-60 = test system: HL-60
OVCAR-4 = test system: OVCAR-4
NCI-H23 = test system: NCI-H23
SK-MEL-28 = test system: SK-MEL-28
CCRF-CEM = test system: CCRF-CEM
NCI-H460 = test system: NCI-H460
SF-295 = test system: SF-295
HCC 2998 = test system: HCC 2998
UACC-257 = test system: UACC-257
A549 = test system: A549
RPMI-8226 = test system: RPMI-8226
SK-MEL-5 = test system: SK-MEL-5
SNB-19 = test system: SNB-19
HCT-15 = test system: HCT-15
COLO 205 = test system: COLO 205
CAKI-1 = test system: CAKI-1

`CCCCOC(=O)NC(=O)c1cn(CCCOC(=O)CCCCCCCCC(=O)OCCCn2cc(C(=O)NC(=O)OCCCC)c(=O)[nH]c2=O)c(=O)[nH]c1=O` was tested, and the GI50 (HL-60) was > 100 µM (inactive), the GI50 (OVCAR-4) was > 100 µM (inactive) and the GI50 (NCI-H23) was > 100 µM (inactive). For the same compound, the GI50 (SK-MEL-28) was > 100 µM (inactive), the GI50 (CCRF-CEM) was > 100 µM (inactive) and the GI50 (NCI-H460) was > 100 µM (inactive). The GI50 (SF-295) was > 100 µM (inactive), the GI50 (HCC 2998) was > 100 µM (inactive) and the GI50 (UACC-257) was > 100 µM (inactive). The GI50 (A549) was > 100 µM (inactive), the GI50 (RPMI-8226) was > 100 µM (inactive) and the GI50 (SK-MEL-5) was > 100 µM (inactive). The GI50 (SNB-19) was > 100 µM (inactive), the GI50 (HCT-15) was greater than 100 µM and the GI50 (COLO 205) was > 100 µM (inactive).
With `O=[N+]([O-])c1ccc(N=P(c2ccccc2)(c2ccccc2)c2ccccc2)n2nnnc12` the GI50 (HL-60) was 36.1 µM (inactive), the GI50 (OVCAR-4) was 31.8 µM (inactive) and the GI50 (NCI-H23) was > 100 µM (inactive). For the same compound, the GI50 (SK-MEL-28) was > 100 µM (inactive), the GI50 (CCRF-CEM) was 68.9 µM (inactive) and the GI50 (NCI-H460) was 44.6 µM (inactive). For the same compound, the GI50 (SF-295) was 29 µM (inactive), the GI50 (UACC-257) was 85.9 µM (inactive) and the GI50 (A549) was 40.6 µM (inactive). For the same compound, the GI50 (RPMI-8226) was 35.7 µM (inactive), the GI50 (SK-MEL-5) was 67 µM (inactive) and the GI50 (CAKI-1) was 45.1 µM (inactive). The GI50 (SNB-19) was 33.4 µM (inactive), the GI50 (HCT-15) was greater than 100 µM and the GI50 (COLO 205) was 82 µM (inactive).
For `C#CC(C)(C)Oc1cc(O)c2c(=O)c3ccccc3n(C)c2c1`, the GI50 (HL-60) was > 100 µM (inactive), the GI50 (OVCAR-4) was > 100 µM (inactive) and the GI50 (NCI-H23) was > 100 µM (inactive). For the same compound, the GI50 (SK-MEL-28) was > 100 µM (inactive), the GI50 (CCRF-CEM) was 45.2 µM (inactive) and the GI50 (NCI-H460) was 24.5 µM (inactive). For the same compound, the GI50 (SF-295) was > 100 µM (inactive), the GI50 (HCC 2998) was 77.4 µM (inactive) and the GI50 (UACC-257) was > 100 µM (inactive). The GI50 (A549) was > 100 µM (inactive), the GI50 (SK-MEL-5) was > 100 µM (inactive) and the GI50 (CAKI-1) was > 100 µM (inactive). The GI50 (SNB-19) was > 100 µM (inactive), the GI50 (HCT-15) was greater than 100 µM and the GI50 (COLO 205) was > 100 µM (inactive).
In the case of `O=C(Nc1ccccc1C(=O)NC(=O)c1ccccc1NC(=O)c1ccccc1)c1ccccc1`, the GI50 (OVCAR-4) is reported as 3.41 µM (inactive), the GI50 (NCI-H23) is reported as 4.57 µM (inactive) and the GI50 (SK-MEL-28) is reported as 3.13 µM (inactive). For the same compound, the GI50 (CCRF-CEM) was 3.91 µM (inactive), the GI50 (NCI-H460) was 7.71 µM (inactive) and the GI50 (SF-295) was 10.8 µM (inactive). The GI50 (UACC-257) was 1.86 µM (inactive), the GI50 (A549) was 7.53 µM (inactive) and the GI50 (RPMI-8226) was 1.46 µM (inactive). The GI50 (SK-MEL-5) was 2.9 µM (inactive), the GI50 (CAKI-1) was 10.6 µM (inactive) and the GI50 (SNB-19) was 7.36 µM (inactive). The GI50 (HCT-15) was 16.9 µM and the GI50 (COLO 205) was 1.46 µM (inactive).
In the case of `O=C(c1ccccc1)c1nc2ccc(Cl)cc2c2c1Cc1ccccc1-2`, the GI50 (OVCAR-4) is reported as > 100 µM (inactive), the GI50 (NCI-H23) is reported as > 100 µM (inactive) and the GI50 (SK-MEL-28) is reported as > 100 µM (inactive). The GI50 (SF-295) was > 100 µM (inactive), the GI50 (HCC 2998) was > 100 µM (inactive) and the GI50 (UACC-257) was > 100 µM (inactive). For the same compound, the GI50 (A549) was > 100 µM (inactive), the GI50 (RPMI-8226) was > 100 µM (inactive) and the GI50 (SK-MEL-5) was > 100 µM (inactive). The GI50 (CAKI-1) was > 100 µM (inactive), the GI50 (SNB-19) was > 100 µM (inactive) and the GI50 (HCT-15) was greater than 100 µM. The GI50 (COLO 205) was > 100 µM (inactive).
With `C=C1CC2OC(=O)C(=C)C2C(O)C2C(=C)CCC12` (stereo not drawn) the GI50 (HL-60) was 1.89 µM (inactive), the GI50 (NCI-H23) was 12.6 µM (inactive) and the GI50 (SK-MEL-28) was 7.28 µM (inactive). For the same compound, the GI50 (CCRF-CEM) was 2.24 µM (inactive), the GI50 (NCI-H460) was 14.7 µM (inactive) and the GI50 (SF-295) was 10.9 µM (inactive). The GI50 (HCC 2998) was 10.2 µM (inactive), the GI50 (UACC-257) was 4.2 µM (inactive) and the GI50 (A549) was 14.4 µM (inactive). For the same compound, the GI50 (RPMI-8226) was 2.81 µM (inactive), the GI50 (SK-MEL-5) was 12.2 µM (inactive) and the GI50 (CAKI-1) was 5.25 µM (inactive). For the same compound, the GI50 (SNB-19) was 16.2 µM (inactive) and the GI50 (COLO 205) was 3.78 µM (inactive).
For `O=C1C2C3C=C4c5ccccc5N(c5ccccc5)C4([C@@H]2C(=O)N1c1ccc(F)cc1)[C@H]1C(=O)N(c2ccc(F)cc2)C(=O)[C@@H]31` (stereo partly drawn), the GI50 (HL-60) was > 100 µM (inactive), the GI50 (NCI-H23) was > 100 µM (inactive) and the GI50 (SK-MEL-28) was > 100 µM (inactive). For the same compound, the GI50 (CCRF-CEM) was > 100 µM (inactive), the GI50 (SF-295) was > 100 µM (inactive) and the GI50 (HCC 2998) was > 100 µM (inactive). The GI50 (UACC-257) was > 100 µM (inactive), the GI50 (A549) was > 100 µM (inactive) and the GI50 (RPMI-8226) was > 100 µM (inactive). The GI50 (SNB-19) was > 100 µM (inactive), the GI50 (HCT-15) was greater than 100 µM and the GI50 (COLO 205) was > 100 µM (inactive).
